Assay results as given in patent publication US20240209028A1, “CNP COMPOUNDS” (priority 2022, published 2024).
Values after ≈ are worked out from the molar mass of the structure shown. Like-named read-outs stand apart in the source and are kept apart here. Starred links: 1 amine or outer side, 2 acyl side, 3 side chain; linkers in the order of their positions; H or OH if unused. Positions of bridges follow the written chain, without caps; N, C: chain ends. Residues, ends and D or L forms follow the SMILES beside them. *: point of attachment. C18 diacid = O=C(O)CCCCCCCCCCCCCCCCC(=O)*; γGlu = O=C(O)[C@H](CCC(=O)[*:2])N[*:1]; AEEA = NCCOCCOCC(=O)O

Assays:
[1] = Solubility of CNP compounds at pH 4.0 and pH 6.5; assay type: physicochemical
Procedure, shortened: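 Freeze-dried peptide was brought to a nominal ≥4000-5000 nmol/mL in 5 mM sodium acetate, 250 mM glycerol (pH 4.0) or in 8 mM sodium phosphate, 23 mg/mL glycerol (pH 6.5 via NaOH titration). Samples were equilibrated at room temperature overnight if undissolved, and supernatant concentration was measured by CAD.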

[2] = Thioflavin T (ThT) assay: lagtime and peptide recovery; assay type: physicochemical; details: assay terminated after 45 hours; for LagTime (h) at pH 4.0: ThT, 37° C., shaking; for LagTime (h) at pH 6.5: ThT assay, pH 6.5, 37° C.
Procedure, shortened: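 ThT (final about 1 μM) was added to peptide supernatants at pH 4.0 and 6.5 and incubated at 37 °C with orbital shaking for 45 h. Fluorescence (ex 444/em 485 nm) was read every 20 min, and lag-time was taken as the time to onset of signal rise. Recovery is the RP-UPLC (215 nm) total peak area after vs. before incubation.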

[3] = 8 mM sodium phosphate, 23 mg/mL glycerol, pH 6.5, room temperature, read-out: Solubility at pH 6.5
[4] = 5 mM sodium acetate, 250 mM glycerol, pH 4.0, room temperature, read-out: Solubility at pH 4.0

Compound	solubility ([1]; pH 4) [mM]	LagTime (h) at pH 4.0 [2] [h]	solubility [1, 3] [mM]	LagTime (h) at pH 6.5 [2] [h]	solubility [1, 4] [mM]
CC[C@H](C)[C@@H]1NC(=O)[C@H](CCCNC(=N)N)NC(=O)[C@H](CCC(=O)O)NC(=O)[C@H](CC(C)C)NC(=O)[C@@H]2CCCN2C(=O)[C@H](CC(C)C)NC(=O)CNC(=O)[C@H](Cc2ccccc2)NC(=O)[C@@H](NC(=O)CNC(=O)[C@H](CCC(N)=O)NC(=O)[C@H](CO)NC(=O)CNC(=O)CNC(=O)[C@H](CCCCN)NC(=O)[C@H](CCCCN)NC(=O)[C@H](CCC(N)=O)NC(=O)[C@H](C)NC(=O)CNC(=O)[C@H](CCCCN)NC(=O)[C@H](Cc2ccc(O)cc2)NC(=O)COCCOCCNC(=O)COCCOCCNC(=O)COCCOCCNC(=O)COCCOCCNC(=O)CC[C@H](NC(=O)CC[C@H](NC(=O)CCCCCCCCCCCCCCCCC(=O)O)C(=O)O)C(=O)O)CSSC[C@@H](C(=O)O)NC(=O)CNC(=O)[C@H](CC(C)C)NC(=O)CNC(=O)[C@H](CO)NC(=O)[C@H](CC(C)C)NC(=O)[C@H](CO)NC(=O)CNC1=O [compound 1489] ({C18 diacid-γGlu-γGlu-AEEA-AEEA-AEEA-AEEA}-YKGAQKKGGSQGCFGLPLERIGSLSGLGC-OH; disulfide 13-29)	5.93 (≈ 24 mg/mL)	45			
CC[C@H](C)[C@@H]1NC(=O)[C@H](CCCNC(=N)N)NC(=O)[C@H](CC(=O)O)NC(=O)[C@H](CC(C)C)NC(=O)[C@@H]2CCCN2C(=O)[C@H](CC(C)C)NC(=O)CNC(=O)[C@H](Cc2ccccc2)NC(=O)[C@@H](NC(=O)CNC(=O)[C@H](CCC(N)=O)NC(=O)[C@H](CO)NC(=O)CNC(=O)CNC(=O)[C@H](CCCCN)NC(=O)[C@H](Cc2c[nH]cn2)NC(=O)[C@H](CCC(N)=O)NC(=O)[C@H](C)NC(=O)CNC(=O)[C@H](CCC(=O)O)NC(=O)[C@H](Cc2ccc(O)cc2)NC(=O)[C@H](CCCCN)NC(=O)[C@H](CCCNC(=N)N)NC(=O)[C@H](C)NC(=O)COCCOCCNC(=O)COCCOCCNC(=O)COCCOCCNC(=O)COCCOCCNC(=O)CC[C@H](NC(=O)CC[C@H](NC(=O)CCCCCCCCCCCCCCCCC(=O)O)C(=O)O)C(=O)O)CSSC[C@@H](C(=O)O)NC(=O)CNC(=O)[C@H](CC(C)C)NC(=O)CNC(=O)[C@H](CO)NC(=O)[C@H](CC(C)C)NC(=O)[C@H](CO)NC(=O)CNC1=O [compound 1432] ({C18 diacid-γGlu-γGlu-AEEA-AEEA-AEEA-AEEA}-ARKYEGAQHKGGSQGCFGLPLDRIGSLSGLGC-OH; disulfide 16-32)			9.83 (≈ 43.2 mg/mL)	45	
CC[C@H](C)[C@@H]1NC(=O)[C@H](CCCNC(=N)N)NC(=O)[C@H](CC(=O)O)NC(=O)[C@H](CC(C)C)NC(=O)[C@@H]2CCCN2C(=O)[C@H](CC(C)C)NC(=O)CNC(=O)[C@H](Cc2ccccc2)NC(=O)[C@@H](NC(=O)CNC(=O)[C@H](CCC(N)=O)NC(=O)[C@H](CO)NC(=O)CNC(=O)CNC(=O)[C@H](CCCCN)NC(=O)[C@H](CCCCN)NC(=O)[C@H](CCC(N)=O)NC(=O)[C@H](C)NC(=O)CNC(=O)[C@H](Cc2c[nH]cn2)NC(=O)[C@H](Cc2ccc(O)cc2)NC(=O)COCCOCCNC(=O)COCCOCCNC(=O)COCCOCCNC(=O)COCCOCCNC(=O)CC[C@H](NC(=O)CC[C@H](NC(=O)CCCCCCCCCCCCCCCCC(=O)O)C(=O)O)C(=O)O)CSSC[C@@H](C(=O)O)NC(=O)CNC(=O)[C@H](CC(C)C)NC(=O)CNC(=O)[C@H](CO)NC(=O)[C@H](CC(C)C)NC(=O)[C@H](CO)NC(=O)CNC1=O [compound 1434] ({C18 diacid-γGlu-γGlu-AEEA-AEEA-AEEA-AEEA}-YHGAQKKGGSQGCFGLPLDRIGSLSGLGC-OH; disulfide 13-29)			8.51 (≈ 34.4 mg/mL)	45	
CC[C@H](C)[C@@H]1NC(=O)[C@H](CCCNC(=N)N)NC(=O)[C@H](CC(=O)O)NC(=O)[C@H](CC(C)C)NC(=O)[C@@H]2CCCN2C(=O)[C@H](CC(C)C)NC(=O)CNC(=O)[C@H](Cc2ccccc2)NC(=O)[C@@H](NC(=O)CNC(=O)[C@H](CCCCN)NC(=O)[C@H](CO)NC(=O)[C@H](CC(C)C)NC(=O)CNC(=O)[C@H](CCCCN)NC(=O)[C@H](CCCCN)NC(=O)[C@H](CCC(N)=O)NC(=O)[C@H](C)NC(=O)CNC(=O)[C@H](CCCCN)NC(=O)[C@H](Cc2ccc(O)cc2)NC(=O)[C@H](CCCCN)NC(=O)[C@H](CCCNC(=N)N)NC(=O)[C@H](C)NC(=O)[C@H](CCC(N)=O)NC(=O)[C@@H]2CCCN2C(=O)[C@H](Cc2c[nH]cn2)NC(=O)[C@H](CCC(=O)O)NC(=O)[C@H](CCC(N)=O)NC(=O)COCCOCCNC(=O)COCCOCCNC(=O)CC[C@H](NC(=O)CC[C@H](NC(=O)CC[C@H](NC(=O)CC[C@H](NC(=O)CC[C@H](NC(=O)CCCCCCCCCCCCCCCCC(=O)O)C(=O)O)C(=O)O)C(=O)O)C(=O)O)C(=O)O)CSSC[C@@H](C(=O)O)NC(=O)CNC(=O)[C@H](CC(C)C)NC(=O)CNC(=O)[C@H](CO)NC(=O)[C@H](CC(C)C)NC(=O)[C@H](CO)NC(=O)CNC1=O [compound 1474] ({C18 diacid-γGlu-γGlu-γGlu-γGlu-γGlu-AEEA-AEEA}-QEHPQARKYKGAQKKGLSKGCFGLPLDRIGSLSGLGC-OH; disulfide 21-37; C-terminus assumed)		45	0.969 (≈ 5 mg/mL)		6.38 (≈ 32.9 mg/mL)
CC[C@H](C)[C@@H]1NC(=O)[C@H](CCCNC(=N)N)NC(=O)[C@H](CC(=O)O)NC(=O)[C@H](CC(C)C)NC(=O)[C@@H]2CCCN2C(=O)[C@H](CC(C)C)NC(=O)CNC(=O)[C@H](Cc2ccccc2)NC(=O)[C@@H](NC(=O)CNC(=O)[C@H](CCCCN)NC(=O)[C@H](CO)NC(=O)[C@H](CC(C)C)NC(=O)CNC(=O)[C@H](CCCCN)NC(=O)[C@H](CCCCN)NC(=O)[C@H](CCC(N)=O)NC(=O)[C@H](C)NC(=O)CNC(=O)[C@H](CCC(=O)O)NC(=O)[C@H](Cc2ccc(O)cc2)NC(=O)COCCOCCNC(=O)COCCOCCNC(=O)COCCOCCNC(=O)COCCOCCNC(=O)CC[C@H](NC(=O)CCCCCCCCCCCCCCCCC(=O)O)C(=O)O)CSSC[C@@H](C(=O)O)NC(=O)CNC(=O)[C@H](CC(C)C)NC(=O)CNC(=O)[C@H](CO)NC(=O)[C@H](CC(C)C)NC(=O)[C@H](CO)NC(=O)CNC1=O [compound 1375] ({C18 diacid-γGlu-AEEA-AEEA-AEEA-AEEA}-YEGAQKKGLSKGCFGLPLDRIGSLSGLGC-OH; disulfide 13-29; C-terminus assumed)			3.13 (≈ 12.4 mg/mL)	45	
CC[C@H](C)[C@@H]1NC(=O)[C@H](CCCNC(=N)N)NC(=O)[C@H](CC(=O)O)NC(=O)[C@H](CC(C)C)NC(=O)[C@@H]2CCCN2C(=O)[C@H](CC(C)C)NC(=O)CNC(=O)[C@H](Cc2ccccc2)NC(=O)[C@@H](NC(=O)CNC(=O)[C@H](CO)NC(=O)[C@H](CO)NC(=O)[C@H](CC(C)C)NC(=O)CNC(=O)[C@H](CCCCN)NC(=O)[C@H](CCCCN)NC(=O)[C@H](CCC(N)=O)NC(=O)[C@H](C)NC(=O)CNC(=O)[C@H](CCCCN)NC(=O)[C@H](Cc2ccc(O)cc2)NC(=O)[C@H](CCCCN)NC(=O)[C@H](CCCNC(=N)N)NC(=O)[C@H](C)NC(=O)[C@H](CCC(N)=O)NC(=O)[C@@H]2CCCN2C(=O)[C@H](Cc2c[nH]cn2)NC(=O)[C@H](CCC(=O)O)NC(=O)[C@H](CCC(N)=O)NC(=O)CC[C@H](NC(=O)CC[C@H](NC(=O)CC[C@H](NC(=O)CC[C@H](NC(=O)CCCCCCCCCCCCCCCCC(=O)O)C(=O)O)C(=O)O)C(=O)O)C(=O)O)CSSC[C@@H](C(=O)O)NC(=O)CNC(=O)[C@H](CC(C)C)NC(=O)CNC(=O)[C@H](CO)NC(=O)[C@H](CC(C)C)NC(=O)[C@H](CO)NC(=O)CNC1=O [compound 1389] ({C18 diacid-γGlu-γGlu-γGlu-γGlu}-QEHPQARKYKGAQKKGLSSGCFGLPLDRIGSLSGLGC-OH; disulfide 21-37)		45	0.426 (≈ 2 mg/mL)		8.9 (≈ 41.8 mg/mL)
CC[C@H](C)[C@@H]1NC(=O)[C@H](CCCNC(=N)N)NC(=O)[C@H](CC(=O)O)NC(=O)[C@H](CC(C)C)NC(=O)[C@@H]2CCCN2C(=O)[C@H](CC(C)C)NC(=O)CNC(=O)[C@H](Cc2ccccc2)NC(=O)[C@@H](NC(=O)CNC(=O)[C@H](CCC(N)=O)NC(=O)[C@H](CO)NC(=O)[C@H](CO)NC(=O)CNC(=O)[C@H](Cc2c[nH]cn2)NC(=O)[C@H](Cc2c[nH]cn2)NC(=O)[C@H](CCC(N)=O)NC(=O)[C@H](C)NC(=O)CNC(=O)[C@H](Cc2c[nH]cn2)NC(=O)[C@H](Cc2ccc(O)cc2)NC(=O)[C@H](CCCCN)NC(=O)[C@H](Cc2c[nH]cn2)NC(=O)[C@H](C)NC(=O)[C@H](CCC(N)=O)NC(=O)[C@@H]2CCCN2C(=O)[C@H](Cc2c[nH]cn2)NC(=O)[C@H](CCC(=O)O)NC(=O)[C@H](CCC(N)=O)NC(=O)COCCOCCNC(=O)COCCOCCNC(=O)CC[C@H](NC(=O)CCCCCCCCCCCCCCCCC(=O)O)C(=O)O)CSSC[C@@H](C(=O)O)NC(=O)CNC(=O)[C@H](CC(C)C)NC(=O)CNC(=O)[C@H](CO)NC(=O)[C@H](CC(C)C)NC(=O)[C@H](CO)NC(=O)CNC1=O [compound 1381] ({C18 diacid-γGlu-AEEA-AEEA}-QEHPQAHKYHGAQHHGSSQGCFGLPLDRIGSLSGLGC-OH; disulfide 21-37)		45			9 (≈ 41.6 mg/mL)
